ChEMBL document CHEMBL5604064, “ASAP - DENV-1 NS2B-NS3 protease fluorescence dose response” (2024)

Biological target: T1, NS3 protease (dengue virus type 1, UniProt A0A0K0TQ28)
T1 sequence (A0A0K0TQ28 whole entry): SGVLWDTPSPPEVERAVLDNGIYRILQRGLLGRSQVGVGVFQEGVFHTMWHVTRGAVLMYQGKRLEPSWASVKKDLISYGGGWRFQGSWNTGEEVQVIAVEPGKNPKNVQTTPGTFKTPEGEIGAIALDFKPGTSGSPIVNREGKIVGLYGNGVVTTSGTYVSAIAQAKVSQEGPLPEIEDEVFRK
Experiment: Functional biochemical assay to identify treatments for viral infectious disease that targets Dengue virus type 1 NS2B-NS3 protease. Utilizing a direct enzyme activity measurement method, reading the fluorescence intensity is used to characterize the relative potency of inhibitors as IC50.
Set-up: species or system Nauru/West Pac/1974

| SMILES | IC50 |
| --- | --- |
| N#Cc1ccc(-c2nc3c(C(=O)Nc4ccc5c(c4)CNC5)cc(F)cc3[nH]2)cc1 | 1.68 µM |
| COc1cccc(-c2nc3c(C(=O)Nc4ccc5c(c4)CNC5)cc(F)cc3[nH]2)c1 | 5.41 µM |
| O=C(Nc1ccc2c(c1)CNC2)c1cc(F)cc2[nH]c(-c3cccc(F)c3)nc12 | 2.69 µM |
| Cc1cccc(-c2nc3c(C(=O)Nc4ccc5c(c4)CNC5)cc(F)cc3[nH]2)c1 | 5.92 µM |
| NCc1ccc(-c2csc3cc(C(=O)Nc4ccc5c(c4)CNC5)ccc23)cc1 | 31.7 µM |
| NCc1csc2cc(C(=O)Nc3ccc4c(c3)CNC4)ccc12 | 9.99 µM |
| O=C(Nc1ccc2c(c1)CNC2)c1cccc2c(C3CNC3)n[nH]c12 | 92.9 µM |
